According to patent US4922021A, “New alkylene diamine derivatives” (BASF Aktiensellschaft, priority 1981, dated 1990):

Columns and labels:
left auricle = assay: Electrophysiological tests on isolated rabbit heart, left auricle; design: species or system rabbits; details: 2 mg/l, average
Description: (§1) Heart of rabbits of both sexes, weighing 1-2 kg, were removed, the right and left auricles and a segment of the right ventricle were prepared and placed into a vessel filled with nutrient solution. Bipolar platinum electrodes (a stimulating electrode and a lead electrode) were placed onto the organ strips, and the electric stimulus threshold and the speed of impulse condution were measured. The effective refractory period determined on the basis of the maximum driving frequency.

[1] = tested on: aconitin-induced arrhythmia; details: mouse, in vivo; for Delay in the appearance time of arrhythmia: po, 100 mg/kg
right ventricle = assay: Electrophysiological tests on isolated rabbit heart, right ventricle; design: species or system rabbits; details: 2 mg/l, average
Description: as §1

[2] = tested on: barium chloride-induced arrhythmia; assay: Barium chloride-induced arrhythmia in awake rabbits; format: in vivo; details: 2 mg/kg
Description: The compounds to be tested were administered intravenously to the animals 3 minutes after treating them with barium chloride, and the effect was recorded. It was regarded as a positive protecting effect when the compound suspended the arrhythmic condition for at least 3 minutes.

[3] = tested on: myocardial contractile force, arterial blood pressure and pulse rate; assay: Inotropic effects (myocardial contractile force) in anaesthetized cats; format: in vivo; details: i.v.; for Contractility, change: basal 100
Description: Cats were anaesthetized with chloralose-urethane, a cannula was lead into the femoral artery, and the cannula was connected, through a Statham P 23 Db pressure sensor, to a Hellige recorder, where the arterial blood pressure and the pulse rate were recorded. The animals were respirated artifically, their chests were opened, and a strain gage was sutured on the left heart. The strain gage was connected to the Hellige recorder, and the variations in cardiac contractile force were recorded. The test compounds were administered to the animals intravenously through a cannula.

[4] = tested on: ouabain-induced arrhythmia; assay: Ouabain-induced arrhythmia in anaesthetized dogs; format: in vivo
Description: Anaesthetized dogs of both sexes were treated intravenously with an infusion of 60 /ug/kg of ouabain to provoke arrhythmia, and the arrhythmic state was maintained with an ouabain dose 60 times less than the initial. In this way a ventricular tachycardia or tachyarrhythmia lasting for more than 180 minutes was provoked. The compounds were tested during this period. The period of recovered normal sinus rhythm was recorded, and when a compound exerted protective effect for more than 30 minutes, this fact was regarded as complete protection. The tests were performed essentially according to the method of Piascik et al. [Can.
Examination of the anti-arrhythmic effect in dogs anaesthetized with a 30
of pentobarbital sodium and treated with ouabain

[5] = tested on: aconitin-induced arrhythmia; assay: animal or person; details: Mus musculus, ip, read-out: Delay in time of appearance of arrhythmia
[6] = tested on: fibrillation threshold of the heart; assay: Determination of the fibrillation threshold in anaesthetized cats; format: in vivo
Excerpt: The chests of the cats were opened under chloralose-urethane anaesthesia a bipolar stimulating electrode was fixed onto the heart, and the heart was stimulated electrically with a frequency of 20 Hz, under continuously increasing current strength, until a fibrillo-flattern could be observed. This current strength was regarded as the fibrillation threshold of the animal.

[7] = tested on: systemic and pulmonary circulation; assay: Effects on the systemic and pulmonary circulation of awake cats; format: in vivo; details: i.v., 1.0 mg/kg; for Pulmonary arterial mean pressure, change: basal 13; for Arterial blood pressure, change: basal 102; for Pulse/minute, change: basal 190-200
Excerpt: Cats were anaesthetized with pentobarbital, and cannulas were placed into the carotis artery and, through the jugular vein, into the pulmonary artery. An additional cannula was placed into the jugular vein for the administration of the test compound. The cannulas were filled up with heparin in order to avoid blood clotting. Thereafter the wounds were sutured, and the cannulas were led below a bandage placed around the neck of the animal. 3 days after this operation the systemic arterial blood pressure, the pulmonary arterial pressure and the pulse rate of the awake animals were measured with a Hellige recorder, connected to the cannulas through a Statham P 23 Db type pressure transducer.

in vivo = details: mouse, ip
[8] = literature; cited from earlier work
respiratory centre = details: Bull. Soc. Chim. France 1947, 827; cited from earlier work

**Q.** Which results are given for `Cc1cccc(C)c1OCC(C)N.Cl` (stereo not drawn) [1-(2,6-Dimethylphenoxy)-2-aminopropane hydrochloride, reference compound]?
**A.** Change of the conduction time (left auricle): +24%; Change of the effective refractory period (left auricle): +32%; Change of the electric stimulus threshold (left auricle): +36%; Delay in the appearance time of arrhythmia [1]: +82.0%; Change of the conduction time (right ventricle): +11%; Change of the effective refractory period (right ventricle): +28%; Change of the electric stimulus threshold (right ventricle): +14%; Protecting effect, number of animals ([2]; rabbit, in vivo, iv): 4/10; Arterial blood pressure, change ([3]; 0.5 mg/kg): -45 mmHg; Pulse/minute, change ([3]; 0.5 mg/kg): -40 min⁻¹; Contractility, change ([3]; 0.5 mg/kg): -29%; Arterial blood pressure, change ([3]; 1.0 mg/kg): -40 mmHg; Pulse/minute, change ([3]; 1.0 mg/kg): -50 min⁻¹; Contractility, change ([3]; 1.0 mg/kg): -32%; Arterial blood pressure, change ([3]; 2.0 mg/kg): -60 mmHg; Pulse/minute, change ([3]; 2.0 mg/kg): -50 min⁻¹; Contractility, change ([3]; 2.0 mg/kg): -38%; Arterial blood pressure, change ([3]; 5.0 mg/kg): -65 mmHg; Pulse/minute, change ([3]; 5.0 mg/kg): -50 min⁻¹; Contractility, change ([3]; 5.0 mg/kg): -57%; Average time of partial suspension ([4]; dog, in vivo, iv, 0.5 mg/kg): 0.5 min; Complete suspension, number of cases ([4]; dog, in vivo, iv, 0.5 mg/kg): 1/15; Average time of partial suspension ([4]; dog, in vivo, iv, 1 mg/kg): 2.6 min; Complete suspension, number of cases ([4]; dog, in vivo, iv, 1 mg/kg): 1/15; Average time of partial suspension ([4]; dog, in vivo, iv, 2 mg/kg): 2.9 min; Complete suspension, number of cases ([4]; dog, in vivo, iv, 2 mg/kg): 3/14; Average time of partial suspension ([4]; dog, in vivo, iv, 4 mg/kg): 1.4 min; Complete suspension, number of cases ([4]; dog, in vivo, iv, 4 mg/kg): 4/9; Average time of partial suspension ([4]; dog, in vivo, iv, 8 mg/kg): 10.3 min; Complete suspension, number of cases ([4]; dog, in vivo, iv, 8 mg/kg): 2/5; change in vivo at 5 mg/kg [5]: 3.5%; change in vivo at 10 mg/kg [5]: 7.7%; change in vivo at 25 mg/kg [5]: 33.3%; change in vivo at 50 mg/kg [5]: 83.1%; change in vivo at 75 mg/kg [5]: 162%; Effect on the fibrillation threshold ([6]; in vivo, iv, 0.5 mg/kg): +9.4%; Effect on the fibrillation threshold ([6]; in vivo, iv, 1 mg/kg): +12.9%; Effect on the fibrillation threshold ([6]; in vivo, iv, 2 mg/kg): +24.8%; Effect on the fibrillation threshold ([6]; in vivo, iv, 4 mg/kg): +34.0%; Pulmonary arterial mean pressure, change [7]: +6 mmHg; Arterial blood pressure, change [7]: -39 mmHg; Pulse/minute, change [7]: -66 min⁻¹

**Q.** With `Cc1cccc(C)c1NCC(C)N` (stereo not drawn) [1-(2,6-dimethylphenyl-amino)-2-amino-propane] as the molecule, how does the “Delay in the appearance time of arrhythmia” value [1] read?
**A.** +27.0%

**Q.** And the LD50 (in vivo)?
**A.** 135 mg/kg

**Q.** What about the change in vivo at 25 mg/kg [5] of the same molecule?
**A.** 17%

**Q.** What about the change in vivo at 50 mg/kg [5] of the same molecule?
**A.** 87.3%

**Q.** What about the change in vivo at 100 mg/kg [5] of the same molecule?
**A.** 124%

**Q.** For `CCN(CC)CCNc1c(C)cccc1C` [1-(2,6-dimethylphenyl-amino)-2-diethylamino-ethane], which local anaesthetic effects [8] is on record?
**A.** local anaesthetic effects

**Q.** For `Cc1cccc(C)c1NCC(C)N(C)C` (stereo not drawn) [1-(2,6-dimethylphenyl-amino)-2-dimethylamino-propane], which “Change of the conduction time” value (left auricle) is on record?
**A.** +12%

**Q.** What about the “Change of the effective refractory period” value (left auricle) of the same molecule?
**A.** +20%

**Q.** What about the “Change of the electric stimulus threshold” value (left auricle) of the same molecule?
**A.** +32%

**Q.** And the “column headed by drawing 10 (apparently LD50/ED50)” value ([1]; ip)?
**A.** 5.7

**Q.** And the “Delay in the appearance time of arrhythmia” value [1]?
**A.** +74.0%

**Q.** What about the LD50 (in vivo) of the same molecule?
**A.** 114 mg/kg

**Q.** What about the “Change of the conduction time” value (right ventricle) of the same molecule?
**A.** +12%

**Q.** And the “Change of the effective refractory period” value (right ventricle)?
**A.** +18%

**Q.** What about the “Change of the electric stimulus threshold” value (right ventricle) of the same molecule?
**A.** +6%

**Q.** And the “Protecting effect, number of animals” value ([2]; i.v., arrhythmia suspended for at least 3 minutes)?
**A.** 5/10

**Q.** And the “Arterial blood pressure, change” value ([3]; 0.5 mg/kg)?
**A.** -7 mmHg

**Q.** What about the “Pulse/minute, change” value ([3]; 0.5 mg/kg) of the same molecule?
**A.** +10 /minute

**Q.** And the “Contractility, change” value ([3]; 0.5 mg/kg)?
**A.** -5%

**Q.** And the “Arterial blood pressure, change” value ([3]; 1.0 mg/kg)?
**A.** -10 mmHg

**Q.** What about the “Pulse/minute, change” value ([3]; 1.0 mg/kg) of the same molecule?
**A.** +15 /minute

**Q.** And the “Arterial blood pressure, change” value ([3]; 2.0 mg/kg)?
**A.** -30 mmHg

**Q.** And the “Pulse/minute, change” value ([3]; 2.0 mg/kg)?
**A.** -10 min⁻¹

**Q.** What about the “Arterial blood pressure, change” value ([3]; 5.0 mg/kg) of the same molecule?
**A.** -40 mmHg

**Q.** And the “Pulse/minute, change” value ([3]; 5.0 mg/kg)?
**A.** -25 min⁻¹

**Q.** And the “Contractility, change” value ([3]; 5.0 mg/kg)?
**A.** -33%

**Q.** What about the “Average time of partial suspension” value ([4]; i.v., 0.5 mg/kg) of the same molecule?
**A.** 0.4 min

**Q.** What about the “Complete suspension, number of cases” value ([4]; i.v., 0.5 mg/kg, protection > 30 min = complete) of the same molecule?
**A.** 0/15

**Q.** What about the “Average time of partial suspension” value ([4]; i.v., 1.0 mg/kg) of the same molecule?
**A.** 1.5 min

**Q.** What about the “Complete suspension, number of cases” value ([4]; i.v., 1.0 mg/kg, protection > 30 min = complete) of the same molecule?
**A.** 0/15

**Q.** And the “Average time of partial suspension” value ([4]; i.v., 2.0 mg/kg)?
**A.** 5.7 min

**Q.** What about the “Complete suspension, number of cases” value ([4]; i.v., 2.0 mg/kg, protection > 30 min = complete) of the same molecule?
**A.** 4/15

**Q.** What about the “Average time of partial suspension” value ([4]; i.v., 4.0 mg/kg) of the same molecule?
**A.** 6.4 min

**Q.** And the “Complete suspension, number of cases” value ([4]; i.v., 4.0 mg/kg, protection > 30 min = complete)?
**A.** 3/12

**Q.** And the “Average time of partial suspension” value ([4]; i.v., 8.0 mg/kg)?
**A.** 10.0 min

**Q.** And the “Complete suspension, number of cases” value ([4]; i.v., 8.0 mg/kg, protection > 30 min = complete)?
**A.** 5/9

**Q.** And the change in vivo at 10 mg/kg [5]?
**A.** 17.2%

**Q.** And the change in vivo at 25 mg/kg [5]?
**A.** 72.7%

**Q.** And the change in vivo at 50 mg/kg [5]?
**A.** 138%

**Q.** What about the change in vivo at 75 mg/kg [5] of the same molecule?
**A.** 212%

**Q.** What about the “Effect on the fibrillation threshold” value ([6]; i.v., 0.5 mg/kg) of the same molecule?
**A.** +8.6%

**Q.** And the “Effect on the fibrillation threshold” value ([6]; i.v., 1.0 mg/kg)?
**A.** +12.2%

**Q.** And the “Effect on the fibrillation threshold” value ([6]; i.v., 2.0 mg/kg)?
**A.** +27.0%

**Q.** What about the “Effect on the fibrillation threshold” value ([6]; i.v., 4.0 mg/kg) of the same molecule?
**A.** +53.9%

**Q.** And the “Pulmonary arterial mean pressure, change” value [7]?
**A.** +2.8 mmHg

**Q.** And the “Arterial blood pressure, change” value [7]?
**A.** +2 mmHg

**Q.** And the “Pulse/minute, change” value [7]?
**A.** -9 min⁻¹

**Q.** Which “stimulates the respiratory centre” value (respiratory centre) does the source give for `CCN(CC)CCNc1cccc(Cl)c1` [1-(3-chlorophenyl-amino)-2-diethylamino-ethane] here?
**A.** stimulates the respiratory centre
